In PubChem BioAssay AID342 (DTP/NCI, 2004) one finds T/C data, which are given here for 12 molecules.

This assay concerns Swiss mice, Sarcoma 180 sc, mean tumor weight T/C. The assay is described as follows: NCI In Vivo Anticancer Drug Screen. Data for tumor model Sarcoma 180 (subcutaneous) in Swiss mice. Conditions: endpoint: mean tumor weight, higher = larger tumour. The method, boiled down:
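T/C ratio: treated over vehicle-treated controls, measuring survival or tumor size in transplanted-tumor mice.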

Setting [1] is: dose: 12.5 mg/kg/injection, schedule: Q#A X014 (ip), vehicle: methylcellulose (MC).
Where [2] appears, read: dose: 40.0 mg/kg/injection, schedule: Q01DX007 (ip), vehicle: carboxymethylcellulose (CMC).
Setting [3] is: dose: 100.0 mg/kg/injection, schedule: Q01DX007 (ip), vehicle: carboxymethylcellulose (CMC).
The mark [4] stands for this setting: dose: 12.5 mg/kg/injection, schedule: Q01DX007 (ip), vehicle: carboxymethylcellulose (CMC).
[5] abbreviates: dose: 25.0 mg/kg/injection, schedule: Q01DX007 (ip), vehicle: carboxymethylcellulose (CMC).
The mark [6] stands for this setting: dose: 7.0 mg/kg/injection, schedule: Q01DX007 (ip), vehicle: carboxymethylcellulose (CMC).

The structures appear in SMILES notation. “And” between values parts separate entries of the source, which are not always exact repeats. Equal values may be shown once.

As a reminder, the T/C is the ratio of treated to control. Consider `CN(C)/N=N/c1nc[nH]c1C(N)=O`, for which the T/C is, setting by setting: (dose: 11.0 mg/kg/injection, schedule: Q01DX007 (ip), vehicle: saline) 58 % of control; under setting [1], 68 % of control; (dose: 20.0 mg/kg/injection, schedule: Q01DX007 (ip), vehicle: carboxymethylcellulose (CMC)) 89 % of control; (dose: 22.0 mg/kg/injection, schedule: Q01DX007 (ip), vehicle: saline) 62 % of control; (dose: 25.0 mg/kg/injection, schedule: Q#A X014 (ip), vehicle: methylcellulose (MC)) 43 % of control; under setting [2], 62 % of control. Also, the T/C is, setting by setting: (dose: 44.0 mg/kg/injection, schedule: Q01DX007 (ip), vehicle: carboxymethylcellulose (CMC)) 23 % of control and 43 % of control; (dose: 50.0 mg/kg/injection, schedule: Q#A X014 (ip), vehicle: methylcellulose (MC)) 29 % of control; (dose: 66.0 mg/kg/injection, schedule: Q01DX007 (ip), vehicle: carboxymethylcellulose (CMC)) 28 % of control and 53 % of control; under setting [3], 28 % of control and 29 % of control; (dose: 150.0 mg/kg/injection, schedule: Q01DX007 (ip), vehicle: carboxymethylcellulose (CMC)) 19 % of control and 23 % of control; (dose: 160.0 mg/kg/injection, schedule: Q01DX007 (ip), vehicle: carboxymethylcellulose (CMC)) 51 % of control and 73 % of control. Also, the T/C is, setting by setting: (dose: 225.0 mg/kg/injection, schedule: Q01DX007 (ip), vehicle: carboxymethylcellulose (CMC)) 21 % of control; (dose: 320.0 mg/kg/injection, schedule: Q01DX007 (ip), vehicle: carboxymethylcellulose (CMC)) 39 % of control and 45 % of control; (dose: 640.0 mg/kg/injection, schedule: Q01DX007 (ip), vehicle: carboxymethylcellulose (CMC)) 25 % of control.

Turning to `O=C1Cc2ccccc2C(=O)N1`, the T/C (dose: 15.0 mg/kg/injection, schedule: Q#A X014 (ip), vehicle: carboxymethylcellulose (CMC)) was 84 % of control and the T/C (dose: 30.0 mg/kg/injection, schedule: Q#A X014 (ip), vehicle: carboxymethylcellulose (CMC)) was 79 % of control.

Consider `Nc1nc(SCc2ccccc2)c2ncn(CCCl)c2n1`, for which the T/C is 36 % of control and 55 % of control (dose: 56.0 mg/kg/injection, schedule: Q01DX007 (ip), vehicle: carboxymethylcellulose (CMC)); 35 % of control and 41 % of control (dose: 83.0 mg/kg/injection, schedule: Q01DX007 (ip), vehicle: carboxymethylcellulose (CMC)); 12 % of control and 18 % of control (dose: 125.0 mg/kg/injection, schedule: Q01DX007 (ip), vehicle: carboxymethylcellulose (CMC)).

In the case of `CC(=O)Nc1ccc(/C=N/Nc2ccc([N+](=O)[O-])cn2)cc1`, the T/C (dose: 45.0 mg/kg/injection, schedule: Q01DX007 (ip), vehicle: carboxymethylcellulose (CMC)) was 62 % of control; the T/C (dose: 67.0 mg/kg/injection, schedule: Q01DX007 (ip), vehicle: carboxymethylcellulose (CMC)) is 79 % of control; the T/C (dose: 83.3 mg/kg/injection, schedule: Q#A X014 (ip), vehicle: carboxymethylcellulose (CMC)) was 77 % of control; the T/C (dose: 83.3 mg/kg/injection, schedule: Q#A X014 (ip), vehicle: methylcellulose (MC)) was 61 % of control; the T/C (dose: 125.0 mg/kg/injection, schedule: Q#A X014 (ip), vehicle: carboxymethylcellulose (CMC)) was 22 % of control; the T/C (dose: 187.5 mg/kg/injection, schedule: Q#A X014 (ip), vehicle: carboxymethylcellulose (CMC)) was 48 % of control. The T/C (dose: 281.25 mg/kg/injection, schedule: Q#A X014 (ip), vehicle: carboxymethylcellulose (CMC)) was 47 % of control.

In the case of `CCCCN(C)N=Nc1ccc(CCCC(=O)OCC)cc1`, the T/C reads like this: (dose: 125.0 mg/kg/injection, schedule: Q01DX007 (ip), vehicle: saline) 62 % of control; (dose: 200.0 mg/kg/injection, schedule: Q01DX007 (ip), vehicle: saline) 40 % of control.

For `CCCCn1cnc2c(=S)nc[nH]c21`, the T/C was 77 % of control under setting [4]; 53 % of control under setting [5]; 63 % of control (dose: 50.0 mg/kg/injection, schedule: Q01DX007 (ip), vehicle: carboxymethylcellulose (CMC)); 29 % of control under setting [3].

In the case of `CC(=O)Nc1ccc2c(c1)Cc1cc(NC=O)ccc1-2`, the T/C is, setting by setting: (dose: 110.0 mg/kg/injection, schedule: Q01DX007 (ip), vehicle: carboxymethylcellulose (CMC)) 54 % of control and 72 % of control; (dose: 165.0 mg/kg/injection, schedule: Q01DX007 (ip), vehicle: carboxymethylcellulose (CMC)) 87 % of control; (dose: 250.0 mg/kg/injection, schedule: Q01DX007 (ip), vehicle: carboxymethylcellulose (CMC)) 46 % of control; (dose: 375.0 mg/kg/injection, schedule: Q01DX007 (ip), vehicle: carboxymethylcellulose (CMC)) 79 % of control.

As to `CSc1nc(C)c(Br)c(Sc2nc(N)nc3nc[nH]c23)n1`, the T/C runs as follows: (dose: 4.0 mg/kg/injection, schedule: Q01DX007 (ip), vehicle: carboxymethylcellulose (CMC)) 91 % of control; (dose: 5.0 mg/kg/injection, schedule: Q01DX007 (ip), vehicle: carboxymethylcellulose (CMC)) 84 % of control; (dose: 5.5 mg/kg/injection, schedule: Q#A X014 (ip), vehicle: carboxymethylcellulose (CMC)) 43 % of control; (dose: 5.5 mg/kg/injection, schedule: Q#A X014 (ip), vehicle: methylcellulose (MC)) 24 % of control; (dose: 6.0 mg/kg/injection, schedule: Q01DX007 (ip), vehicle: carboxymethylcellulose (CMC)) 90 % of control; (dose: 6.2 mg/kg/injection, schedule: Q01DX007 (ip), vehicle: carboxymethylcellulose (CMC)) 77 % of control. Further, the T/C was 66 % of control under setting [6]; 33 % of control (dose: 8.5 mg/kg/injection, schedule: Q#A X014 (ip), vehicle: carboxymethylcellulose (CMC)); 57 % of control (dose: 8.5 mg/kg/injection, schedule: Q#A X014 (ip), vehicle: methylcellulose (MC)); 74 % of control (dose: 11.0 mg/kg/injection, schedule: Q01DX007 (ip), vehicle: carboxymethylcellulose (CMC)); 69 % of control under setting [4]; 24 % of control (dose: 12.5 mg/kg/injection, schedule: Q#A X014 (ip), vehicle: carboxymethylcellulose (CMC)). The T/C reads like this: under setting [1], 16 % of control; (dose: 17.0 mg/kg/injection, schedule: Q01DX007 (ip), vehicle: carboxymethylcellulose (CMC)) 31 % of control; (dose: 18.5 mg/kg/injection, schedule: Q#A X014 (ip), vehicle: carboxymethylcellulose (CMC)) 18 % of control; (dose: 18.5 mg/kg/injection, schedule: Q#A X014 (ip), vehicle: methylcellulose (MC)) 7 % of control; under setting [5], 20 % of control; (dose: 37.0 mg/kg/injection, schedule: Q01DX007 (ip), vehicle: carboxymethylcellulose (CMC)) 22 % of control. Moreover, the T/C runs as follows: under setting [2], 52 % of control; (dose: 60.0 mg/kg/injection, schedule: Q01DX007 (ip), vehicle: carboxymethylcellulose (CMC)) 46 % of control.

With `N#[N+]c1nc[nH]c1C(N)=O`, the T/C was 61 % of control (dose: 0.62 mg/kg/injection, schedule: Q#A X014 (ip), vehicle: methylcellulose (MC)); 53 % of control (dose: 1.25 mg/kg/injection, schedule: Q#A X014 (ip), vehicle: methylcellulose (MC)); 55 % of control (dose: 2.5 mg/kg/injection, schedule: Q#A X014 (ip), vehicle: methylcellulose (MC)).

Turning to `C#C[C@]1(OC(C)=O)CC[C@H]2[C@@H]3CC[C@H]4CC=CC[C@]4(C)[C@H]3CC[C@@]21C`, the T/C is 84 % of control (dose: 2.5 mg/kg/injection, schedule: Q01DX007 (sc), vehicle: steriod suspending solution); 71 % of control (dose: 5.0 mg/kg/injection, schedule: Q01DX007 (sc), vehicle: steriod suspending solution); 102 % of control (dose: 10.0 mg/kg/injection, schedule: Q01DX007 (sc), vehicle: steriod suspending solution).

For `[N-]=[N+]=CC(=O)NCC(=O)NN`, the T/C is 45 % of control (dose: 400.0 mg/kg/injection, schedule: Q01DX007 (ip), vehicle: water); 43 % of control (dose: 450.0 mg/kg/injection, schedule: Q01DX007 (ip), vehicle: other); 50 % of control (dose: 500.0 mg/kg/injection, schedule: Q01DX007 (ip), vehicle: other); 34 % of control (dose: 600.0 mg/kg/injection, schedule: Q01DX007 (ip), vehicle: water).

`C=CC(CN1CC1)OC(C)=O` (stereo not drawn): the T/C (dose: 0.88 mg/kg/injection, schedule: Q01DX007 (ip), vehicle: carboxymethylcellulose (CMC)) was 94 % of control; the T/C (dose: 1.25 mg/kg/injection, schedule: Q01DX007 (ip), vehicle: carboxymethylcellulose (CMC)) was 68 % of control; the T/C (dose: 1.75 mg/kg/injection, schedule: Q01DX007 (ip), vehicle: carboxymethylcellulose (CMC)) is 97 % of control; the T/C (dose: 2.3 mg/kg/injection, schedule: Q01DX007 (ip), vehicle: carboxymethylcellulose (CMC)) was 58 % of control; the T/C (dose: 3.5 mg/kg/injection, schedule: Q01DX007 (ip), vehicle: carboxymethylcellulose (CMC)) was 56 % of control; the T/C under setting [6] is 50 % of control.
